Assay results reported in patent US9534016B2, “Netrin loop peptide mimetics and uses thereof” (Buck Institute for Research on Aging, priority 2011, dated 2017).

System: ERK phosphorylation associated with APP based cell signaling
Assay: ERK phosphorylation, Western blot, B103 cells co-transfected with APP
Source text: This effect is not seen with cyclic peptide-2 or cyclic peptide-3. […] Cyclic peptide-1 is APP specific
ERK phosphorylation is associated with cell signaling. […] This assay was based on a western blot analysis.

C-P-H-F-C [cyclic peptide-2]
ERK phosphorylation (Western blot, APP cells (B103 co-transfected with APP), cyclic peptide-1 at 21 uM): not seen | modulate ERK phosphorylation and/or switch APP processing from aberrant to normal (cyclized loop peptides prepared and tested): shown to modulate ERK phosphorylation and/or to switch APP processing from aberrant to normal
